According to US8802597B2, “Herbicidal pyrimidines” (E I du Pont de Nemours and Company, priority 2003, dated 2014):
Like-named read-outs stand apart in the source and are kept apart here.

Experiments:
Format in all cases: in vivo
[1] = tested on: barnyardgrass (Echinochloa crus-galli); assay: Test A pre/postemergence; settings: Echinochloa crus-galli, 240 h, read-out: Plant response rating, Barnyardgrass; for pest or weed control at 125 g/ha: 125 g ai/ha; for pest or weed control at 500 g/ha: 500 g ai/ha
In short: (§1)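 After planting in loam and sand, species received test chemical as preemergence soil spray; postemergence spray went on 2–10 cm plants at 1–2 leaves at the same time. Evaluation: visual injury, ~10 d, 0 no effect to 100 complete control.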

[2] = tested on: crabgrass (Digitaria sanguinalis); assay: Test A pre/postemergence; settings: Digitaria sanguinalis, 240 h, read-out: Plant response rating, Crabgrass; for pest or weed control at 125 g/ha: 125 g ai/ha; for pest or weed control at 500 g/ha: 500 g ai/ha
In short: as §1

[3] = tested on: giant foxtail (Setaria faberi); assay: Test A pre/postemergence; settings: Setaria faberi, 240 h, read-out: Plant response rating, Foxtail, Giant; for pest or weed control at 125 g/ha: 125 g ai/ha; for pest or weed control at 500 g/ha: 500 g ai/ha
In short: as §1

[4] = tested on: morningglory (Ipomoea spp.); assay: Test A pre/postemergence; settings: Ipomoea, 240 h, read-out: Plant response rating, Morningglory; for pest or weed control at 125 g/ha: 125 g ai/ha; for pest or weed control at 500 g/ha: 500 g ai/ha
In short: as §1

[5] = tested on: redroot pigweed (Amaranthus retroflexus); assay: Test A pre/postemergence; settings: Amaranthus retroflexus, 240 h, read-out: Plant response rating, Pigweed; for pest or weed control at 125 g/ha: 125 g ai/ha; for pest or weed control at 500 g/ha: 500 g ai/ha
In short: as §1

[6] = tested on: velvetleaf (Abutilon theophrasti); assay: Test A pre/postemergence; settings: Abutilon theophrasti, 240 h, read-out: Plant response rating, Velvetleaf; for pest or weed control at 125 g/ha: 125 g ai/ha; for pest or weed control at 500 g/ha: 500 g ai/ha
In short: as §1

[7] = tested on: giant foxtail (Setaria faberii); assay: Test C pre/postemergence; settings: Setaria faberi; for pest or weed control at 125 g/ha: 125 g ai/ha; for pest or weed control at 16 g/ha: 16 g ai/ha; for pest or weed control at 31 g/ha: 31 g ai/ha; for pest or weed control at 62 g/ha: 62 g ai/ha
In short: (§2)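 Greenhouse pot test: seeds treated preemergence, or plants at 2–18 cm (1- to 4-leaf stage) treated postemergence, with compound in non-phytotoxic solvent plus surfactant. Visual rating versus untreated controls after 12–14 days, scale 0 (no effect) to 100 (complete control); dash means not tested.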

[8] = tested on: goosegrass (Eleusine indica); assay: Test C pre/postemergence; settings: Eleusine indica; for pest or weed control at 16 g/ha: 16 g ai/ha; for pest or weed control at 31 g/ha: 31 g ai/ha; for pest or weed control at 62 g/ha: 62 g ai/ha; for pest or weed control at 125 g/ha: 125 g ai/ha
In short: as §2

[9] = tested on: lambsquarters (Chenopodium album); assay: Test C pre/postemergence; settings: Chenopodium album; for pest or weed control at 16 g/ha: 16 g ai/ha; for pest or weed control at 31 g/ha: 31 g ai/ha; for pest or weed control at 62 g/ha: 62 g ai/ha; for pest or weed control at 125 g/ha: 125 g ai/ha
In short: as §2

[10] = tested on: velvetleaf (Abutilon theophrasti); assay: Test C pre/postemergence; settings: Abutilon theophrasti; for pest or weed control at 16 g/ha: 16 g ai/ha; for pest or weed control at 31 g/ha: 31 g ai/ha; for pest or weed control at 62 g/ha: 62 g ai/ha
In short: as §2

[11] = tested on: chickweed (Stellaria media); assay: Test C postemergence; settings: Stellaria media, post-emergence
In short: as §2

[12] = post-emergence, Postemergence, 0 to 100 scale (0 no effect, 100 complete control)
[13] = pre-emergence, Preemergence, 0 to 100 scale where 0 is no effect and 100 is complete control, approximately ten days
[14] = post-emergence, Postemergence, read-out: Plant response rating (scale of 0 to 100), Foxtail, Giant
[15] = pre-emergence, Preemergence, scale 0 to 100, 0 no effect, 100 complete control, read-out: Plant response rating, Foxtail, Giant
[16] = post-emergence, Postemergence, read-out: Plant response rating (scale of 0 to 100), Goosegrass
[17] = pre-emergence, Preemergence, scale 0 to 100, 0 no effect, 100 complete control, read-out: Plant response rating, Goosegrass
[18] = post-emergence, Postemergence, read-out: Plant response rating (scale of 0 to 100), Lambsquarters
[19] = pre-emergence, Preemergence, scale 0 to 100, 0 no effect, 100 complete control, read-out: Plant response rating, Lambsquarters
[20] = post-emergence, Postemergence, read-out: Plant response rating (scale of 0 to 100), Velvetleaf
[21] = pre-emergence, Preemergence, scale 0 to 100, 0 no effect, 100 complete control, read-out: Plant response rating, Velvetleaf

Nc1nc(-c2ccc(Cl)cc2)nc(C(=O)O)c1Cl [Compound 65, 6-amino-5-chloro-2-(4-chlorophenyl)-4-pyrimidinecarboxylic acid]
pest or weed control at 125 g/ha [1, 12]: 85% | pest or weed control at 500 g/ha [1, 12]: 85% | pest or weed control at 125 g/ha [1, 13]: 50% | pest or weed control at 500 g/ha [1, 13]: 90% | pest or weed control at 125 g/ha [2, 12]: 55% | pest or weed control at 500 g/ha [2, 12]: 80% | pest or weed control at 125 g/ha [2, 13]: 60% | pest or weed control at 500 g/ha [2, 13]: 90% | pest or weed control at 125 g/ha [3, 12]: 85% | pest or weed control at 500 g/ha [3, 12]: 95% | pest or weed control at 125 g/ha [3, 13]: 40% | pest or weed control at 500 g/ha [3, 13]: 80% | pest or weed control at 125 g/ha [4, 12]: 75% | pest or weed control at 500 g/ha [4, 12]: 95% | pest or weed control at 125 g/ha [4, 13]: 25% | pest or weed control at 500 g/ha [4, 13]: 90% | pest or weed control at 125 g/ha [5, 12]: 100% | pest or weed control at 500 g/ha [5, 12]: 100% | pest or weed control at 125 g/ha [5, 13]: 100% | pest or weed control at 500 g/ha [5, 13]: 100% | pest or weed control at 125 g/ha [6, 12]: 95% | pest or weed control at 500 g/ha [6, 12]: 100% | pest or weed control at 125 g/ha [6, 13]: 55% | pest or weed control at 500 g/ha [6, 13]: 95% | pest or weed control at 125 g/ha ([7]; post-emergence, Postemergence, scale 0 to 100 (0 no effect, 100 complete control), read-out: Foxtail, Giant plant response rating): 70% | pest or weed control at 16 g/ha [7, 14]: 50% | pest or weed control at 31 g/ha [7, 14]: 60% | pest or weed control at 62 g/ha [7, 14]: 70% | pest or weed control at 16 g/ha [7, 15]: 0% | pest or weed control at 31 g/ha [7, 15]: 10% | pest or weed control at 62 g/ha [7, 15]: 50% | pest or weed control at 125 g/ha ([7]; pre-emergence, Preemergence, scale 0 to 100, read-out: Plant response rating, Foxtail, Giant): 60% | pest or weed control at 16 g/ha [8, 16]: 50% | pest or weed control at 31 g/ha [8, 16]: 50% | pest or weed control at 62 g/ha [8, 16]: 70% | pest or weed control at 125 g/ha ([8]; post-emergence, Postemergence, scale 0 to 100 (0 no effect, 100 complete control), read-out: Goosegrass plant response rating): 70% | pest or weed control at 16 g/ha [8, 17]: 0% | pest or weed control at 31 g/ha [8, 17]: 0% | pest or weed control at 62 g/ha [8, 17]: 0% | pest or weed control at 125 g/ha ([8]; pre-emergence, Preemergence, scale 0 to 100, read-out: Plant response rating, Goosegrass): 50% | pest or weed control at 16 g/ha [9, 18]: 85% | pest or weed control at 31 g/ha [9, 18]: 90% | pest or weed control at 62 g/ha [9, 18]: 90% | pest or weed control at 125 g/ha ([9]; post-emergence, Postemergence, scale 0 to 100 (0 no effect, 100 complete control), read-out: Lambsquarters plant response rating): 95% | pest or weed control at 16 g/ha [9, 19]: 0% | pest or weed control at 31 g/ha [9, 19]: 50% | pest or weed control at 62 g/ha [9, 19]: 80% | pest or weed control at 125 g/ha ([9]; pre-emergence, Preemergence, scale 0 to 100, read-out: Plant response rating, Lambsquarters): 100% | pest or weed control at 16 g/ha [10, 20]: 65% | pest or weed control at 31 g/ha [10, 20]: 80% | pest or weed control at 62 g/ha [10, 20]: 80% | pest or weed control at 125 g/ha ([10]; post-emergence, Postemergence, 125 g ai/ha, scale 0 to 100 (0 no effect, 100 complete control), read-out: Velvetleaf plant response rating): 90% | pest or weed control at 16 g/ha [10, 21]: 0% | pest or weed control at 31 g/ha [10, 21]: 40% | pest or weed control at 62 g/ha [10, 21]: 80% | pest or weed control at 16 g/ha ([11]; 16 g ai/ha, read-out: Plant response rating (scale of 0 to 100), Chickweed): 60% | pest or weed control at 31 g/ha ([11]; 31 g ai/ha, read-out: Plant response rating (scale of 0 to 100), Chickweed): 60% | pest or weed control at 62 g/ha ([11]; 62 g ai/ha, read-out: Plant response rating (scale of 0 to 100), Chickweed): 60% | pest or weed control at 125 g/ha ([11]; 125 g ai/ha, scale 0 to 100 (0 no effect, 100 complete control), read-out: Chickweed plant response rating): 70%
